# Test system: adults with plaque psoriasis
# Experiment: Long-term open-label extension study (PSOARING 3): Physician Global Assessment (PGA), treatment episodes, treatment success, remittive effect
# Assay type: in vivo, human
# Experimental: This extension study consisted of up to 40 weeks of treatment and a 4 week, safety follow up period.
# At the completion of the Week 12 visit of the DB, pivotal Phase 3 study, eligibility of the subjects opting to enroll in this extension study was confirmed. Study visits during the treatment period for all subjects occurred every 4 weeks (±3 days). A phone call was performed at Week 2 (Day 15). Unscheduled visits may have occurred, as needed. Subjects who withdrew from this study before Week 40 returned to the study center for an Early Termination visit. The total duration of this extension study participation was 44 weeks. Subjects in this study were treated as follows based on their PGA score from the Week 12 visit in the DB, pivotal Phase 3 study (Study DMVT 505 3001 or Study DMVT 505 3002).
# The PGA was used to assess the primary efficacy endpoint in this study. The PGA is a clinical tool for assessing the current state/severity of a subject's psoriasis at a given time point. It is a static, 5 point, morphological assessment of overall disease severity, as determined by the Investigator, using the clinical characteristics of erythema, scaling, and plaque thickness/elevation as guidelines; higher PGA scores represent more severe disease (0=clear, 1=almost clear, 2=mild, 3=moderate, and 4=severe). The BSA affected was not considered in scoring of the PGA. Variations of the PGA are frequently used in clinical studies because it is a simple assessment, similar to those used in clinical practice. The PGA was performed first, prior to the % BSA, PASI, and LTS assessments.
# Time to event parameters, such as the time from treatment success to subsequent worsening (PGA≥2) or duration of treatment episode, were summarized by the Kaplan Meier product limit method using OC.
# [1] = Baseline PGA = 3, Tapinarof (Pivotal) group
# [2] = Baseline PGA = 3, Vehicle (Pivotal) group
# [3] = Baseline PGA = 4, Tapinarof (Pivotal) group
# [4] = Baseline PGA = 4, Vehicle (Pivotal) group
compound,measurement,setting,value
"CC(C)c1c(O)cc(/C=C/c2ccccc2)cc1O [Tapinarof, 3,5-Dihydroxy-4-isopropyl-trans-stilbene]","Total Duration of Treatment Success, Mean (SD)",[1],67.3 (54.20) days
same,"Total Duration of Treatment Success, Median",[1],56.5 days
same,"Average Duration of Episodes, Mean (SD)",[2],174.0 (94.06) days
same,"Average Duration of Episodes, Median",[2],195.0 days
same,"Average Duration of Treatment Success, Mean (SD)",[2],67.1 (57.99) days
same,"Average Duration of Treatment Success, Median",[2],51.0 days
same,"Duration of 1st Episode, Mean (SD)",[2],177.1 (92.70) days
same,"Duration of 1st Episode, Median",[2],195.5 days
same,"Duration of 1st Success, Mean (SD)",[2],70.3 (58.38) days
same,"Duration of 1st Success, Median",[2],56.0 days
same,"Duration of 2nd Episode, Mean (SD)",[2],56.4 (37.29) days
same,"Duration of 2nd Episode, Median",[2],55.5 days
same,"Duration of 2nd Success, Mean (SD)",[2],29.2 (18.23) days
same,"Duration of 2nd Success, Median",[2],28.0 days
same,"Duration of 3rd Episode, Mean (SD)",[2],55.2 (27.44) days
same,"Duration of 3rd Episode, Median",[2],57.0 days
same,"Duration of 3rd Success, Mean (SD)",[2],28.0 (NE) days
same,"Duration of 3rd Success, Median",[2],28.0 days
same,"Duration of 4th Episode, Mean (SD)",[2],1.0 (NE) days
same,"Duration of 4th Episode, Median",[2],1.0 days
same,"Duration of Last Episode, Mean (SD)",[2],171.4 (97.39) days
same,"Duration of Last Episode, Median",[2],195.0 days
same,"Duration of Last Success, Mean (SD)",[2],63.8 (59.74) days
same,"Duration of Last Success, Median",[2],49.0 days
same,"Total Duration of Treatment Episodes, Mean (SD)",[2],186.1 (87.86) days
same,"Total Duration of Treatment Episodes, Median",[2],197.5 days
same,"Total Duration of Treatment Success, Mean (SD)",[2],77.4 (58.26) days
same,"Total Duration of Treatment Success, Median",[2],81.0 days
same,"Average Duration of Episodes, Mean (SD)","Baseline PGA = 4, Overall",187.5 (102.01) days
same,"Average Duration of Episodes, Median","Baseline PGA = 4, Overall",225.0 days
same,"Average Duration of Treatment Success, Mean (SD)","Baseline PGA = 4, Overall",104.5 (56.36) days
same,"Average Duration of Treatment Success, Median","Baseline PGA = 4, Overall",93.0 days
same,"Duration of 1st Episode, Mean (SD)","Baseline PGA = 4, Overall",187.4 (102.04) days
same,"Duration of 1st Episode, Median","Baseline PGA = 4, Overall",225.0 days
same,"Duration of 1st Success, Mean (SD)","Baseline PGA = 4, Overall",104.5 (56.36) days
same,"Duration of 1st Success, Median","Baseline PGA = 4, Overall",93.0 days
same,"Duration of 2nd Episode, Mean (SD)","Baseline PGA = 4, Overall",85.0 (NE) days
same,"Duration of 2nd Episode, Median","Baseline PGA = 4, Overall",85.0 days
same,"Duration of Last Episode, Mean (SD)","Baseline PGA = 4, Overall",187.5 (101.99) days
same,"Duration of Last Episode, Median","Baseline PGA = 4, Overall",225.0 days
same,"Duration of Last Success, Mean (SD)","Baseline PGA = 4, Overall",104.5 (56.36) days
same,"Duration of Last Success, Median","Baseline PGA = 4, Overall",93.0 days
same,"Total Duration of Treatment Episodes, Mean (SD)","Baseline PGA = 4, Overall",191.1 (99.63) days
same,"Total Duration of Treatment Episodes, Median","Baseline PGA = 4, Overall",225.0 days
same,"Total Duration of Treatment Success, Mean (SD)","Baseline PGA = 4, Overall",104.5 (56.36) days
same,"Total Duration of Treatment Success, Median","Baseline PGA = 4, Overall",93.0 days
same,"Average Duration of Episodes, Mean (SD)",[3],132.9 (100.39) days
same,"Average Duration of Episodes, Median",[3],113.0 days
same,"Average Duration of Treatment Success, Mean (SD)",[3],119.5 (79.90) days
same,"Average Duration of Treatment Success, Median",[3],119.5 days
same,"Duration of 1st Episode, Mean (SD)",[3],132.9 (100.39) days
same,"Duration of 1st Episode, Median",[3],113.0 days
same,"Duration of 1st Success, Mean (SD)",[3],119.5 (79.90) days
same,"Duration of 1st Success, Median",[3],119.5 days
same,"Duration of Last Episode, Mean (SD)",[3],132.9 (100.39) days
same,"Duration of Last Episode, Median",[3],113.0 days
same,"Duration of Last Success, Mean (SD)",[3],119.5 (79.90) days
same,"Duration of Last Success, Median",[3],119.5 days
same,"Total Duration of Treatment Episodes, Mean (SD)",[3],132.9(100.39) days
same,"Total Duration of Treatment Episodes, Median",[3],113.0 days
same,"Total Duration of Treatment Success, Mean (SD)",[3],119.5 (79.90) days
same,"Total Duration of Treatment Success, Median",[3],119.5 days
same,"Average Duration of Episodes, Mean (SD)",[4],211.3 (96.08) days
same,"Average Duration of Episodes, Median",[4],267.0 days
same,"Average Duration of Treatment Success, Mean (SD)",[4],89.5 (47.38) days
same,"Average Duration of Treatment Success, Median",[4],89.5 days
same,"Duration of 1st Episode, Mean (SD)",[4],211.3 (96.13) days
same,"Duration of 1st Episode, Median",[4],267.0 days
same,"Duration of 1st Success, Mean (SD)",[4],89.5 (47.38) days
same,"Duration of 1st Success, Median",[4],89.5 days
same,"Duration of 2nd Episode, Mean (SD)",[4],85.0 (NE) days
same,"Duration of 2nd Episode, Median",[4],85.0 days
same,"Duration of Last Episode, Mean (SD)",[4],211.4 (96.04) days
same,"Duration of Last Episode, Median",[4],267.0 days
same,"Duration of Last Success, Mean (SD)",[4],89.5 (47.38) days
same,"Duration of Last Success, Median",[4],89.5 days
same,"Total Duration of Treatment Episodes, Mean (SD)",[4],216.6 (90.82) days
same,"Total Duration of Treatment Episodes, Median",[4],267.0 days
same,"Total Duration of Treatment Success, Mean (SD)",[4],89.5 (47.38) days
same,"Total Duration of Treatment Success, Median",[4],89.5 days
same,PGA 0 - Clear,"Baseline, Overall",78 (10.3) n (%)
same,PGA 1 - Almost Clear,"Baseline, Overall",161 (21.2) n (%)
same,PGA 2 - Mild,"Baseline, Overall",248 (32.7) n (%)
